Results: patent US20210322452A1, “COGNITIVE FUNCTION IMPROVING COMPOSITION COMPRISING NOVEL POST FERMENTED TEA-DERIVED KAEMPFEROL-BASED COMPOUND” (AMOREPACIFIC CORPORATION, priority 2016, published 2021)

Columns and labels:
[1] = system: BDNF (brain-derived neurotrophic factor); test: Expression level of intracellular BDNF in SH-SY5Y cells (real-time quantitative PCR); type: cell-based; conditions: 24 hours, mRNA vs GAPDH, untreated = 100
Description: (§1) Specifically, SH-SY5Y (neuroblastoma, Korean Cell Line Bank) cell line was seeded in a 6-well plate (FALCON) at 2×10^6 cells per well, cultured in an incubator containing 5% CO2 at 37° C. for 24 hours, then treated with 10 μg/ml of GCG, 10 μM of EGCG, 10 μg/ml of the existing green tea extract (GTE), 10 μg/ml of the novel substance 33, and 1 μM of 5-Aza-2′deoxycytidine (5-Aza, Sigma-aldrich) as a positive control group, and further cultured for 24 hours. Thereafter, the medium was entirely removed therefrom, and RNA was extracted therefrom using an RNA extraction kit (RNeasy mini kit, Quiagen). The extracted mRNA was quantitated using an ultraviolet detector (TECAN), and then 1 μg of mRNA was synthesized into a complementary DNA using a kit (SuperScript VILO cDNA Synthesis Kit, Thermofisher Scientific). Approximately 1 μg of the complementary DNA was taken and subjected to the real-time quantitative chain reaction using Taqman probe (Life technology) and Quantitect Probe PCR Kit (Quiagen). The expression levels of BDNF and DNMT1 were thus confirmed. At this time, the housekeeping gene, GAPDH, was used as the reference mRNA.

[2] = system: DNMT1 (DNA (cytosine-5)-methyltransferase 1); test: Expression level of intracellular DNMT1 in SH-SY5Y cells (real-time quantitative PCR); type: cell-based; conditions: 24 hours, mRNA vs GAPDH, untreated = 100
Description: as §1

[3] = target: T1, beta amyloid (Aβ1-42) (Homo sapiens, UniProt P05067); test: Inhibition of beta amyloid aggregation, fluorescence analysis (ThioflavinT assay); type: biochemical; conditions: compound 10 μM; for Increased RFU (amount of aggregated beta amyloid): Aβ1-42 0.1 mg/ml, thioflavinT, 37° C., 150 minutes; for Increased RFU (% of Pos. Cont.): Pos. Cont. (only beta amyloid, no compound) = 100%; for inhibition at 10 µM: aggregation in positive control group taken as 100%, read-out: inhibition of beta amyloid aggregation compared with the positive control group
T1 construct: beta amyloid (Aβ1-42, AnaSpec Inc., USA) was obtained; purchased AnaSpec Inc., USA
T1 sequence (P05067 672-713 limits assumed): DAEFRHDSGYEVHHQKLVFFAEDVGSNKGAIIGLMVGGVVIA
Description: The effect of kaempferol3-O-[2-O″-(E)-p-coumaroyl][beta-D-glucopyranosyl-(1→3)-O-alpha-L-rhamnopyranosyl-(1→6)-O-beta-D-glucopyranoside] on inhibition of beta amyloid aggregation was confirmed by the fluorescence analysis (ThioflavinT assay).
Specifically, beta amyloid (Aβ1-42, AnaSpec Inc., USA) was obtained and used at a concentration of 0.1 mg/ml and stored at −80° C. before use. Morin (20 μM), phenol red (20 μM), and kaempferol3-O-[2-O″-(E)-p-coumaroyl][beta-D-glucopyranosyl-(1→3)-O-alpha-L-rhamnopyranosyl-(1→6)-O-beta-D-glucopyranoside] (1 mg/ml) were respectively diluted with DMSO so as to be adjusted to the concentrations.
In order to specify the degree of inhibition of Aβ1-42 aggregation, each of the compounds prepared at the above concentrations was diluted with 50 μL of 0.01 M sodium phosphate buffer solution to have a concentration of 10 μM, then 40 μL of 0.1 mg/ml of Aβ1-42 was added thereto, and then 10 μl of 2 mM thioflavinT was added thereto, and fluorescence was measured using a fluorescence spectrometer (RF-5300PC, SHIMADZU CORPORATION, Japan) at 37° C. for 150 minutes at intervals of 5 minutes.

[4] = system: skin; test: Human repeated insult patch tests (HRIPT), cumulative skin irritation; type: in vivo; parameters: key to skin reactivity (ICDRG criteria): −: Negative (no reaction); ±: Suspicious or mild erythema and the like; +: Weak reaction (not accompanied by small vesicula), erythema, papule; ++: Moderate reaction (with small vesicula), erythema, papule, vesicula; +++: Strong reaction, bulla reaction; conditions: for Number of subjects showed ±, +, or ++ reactivity, 1st time: 1st patch; for Number of subjects showed ±, +, or ++ reactivity, 1st time / Number of subjects showed ±, +, or ++ reactivity, 2nd time / Number of subjects showed ±, +, or ++ reactivity, 3rd time / Number of subjects showed ±, +, or ++ reactivity, 4th time / Number of subjects showed ±, +, or ++ reactivity, 5th time / Number of subjects showed ±, +, or ++ reactivity, 6th time / Number of subjects showed ±, +, or ++ reactivity, 7 th time / Number of subjects showed ±, +, or ++ reactivity, 8 th time / Number of subjects showed ±, +, or ++ reactivity, 9th time: three lines per group (±, +, ++; lines not labelled); for Number of subjects showed ±, +, or ++ reactivity, 2nd time: 2nd patch; for Number of subjects showed ±, +, or ++ reactivity, 3rd time: 3rd patch; for Number of subjects showed ±, +, or ++ reactivity, 4th time: 4th patch; for Number of subjects showed ±, +, or ++ reactivity, 5th time: 5th patch; for Number of subjects showed ±, +, or ++ reactivity, 6th time: 6th patch; for Number of subjects showed ±, +, or ++ reactivity, 7 th time: 7th patch; for Number of subjects showed ±, +, or ++ reactivity, 8 th time: 8th patch; for Number of subjects showed ±, +, or ++ reactivity, 9th time: 9th patch; for Average reactivity: safe when less than 3
Description: Human repeated insult patch tests (HRIPT) were conducted to determine the cumulative skin irritation by kaempferol3-O-[2-O″-(E)-p-coumaroyl][beta-D-glucopyranosyl-(1→3)-O-alpha-L-rhamnopyranosyl-(1→6)-O-beta-D-glucopyranoside] and to calculate the concentration range in which kaempferol3-O-[2-O″-(E)-p-coumaroyl][beta-D-glucopyranosyl-(1→3)-O-alpha-L-rhamnopyranosyl-(1→6)-O-beta-D-glucopyranoside] can be used on the skin.
Specifically, 15 healthy adult subjects were randomly selected, the test compositions (compositions for skin containing an emulsifier, a stabilizer, purified water, and the like in addition to the compound) containing the compound at 0.5 wt %, 1 wt %, and 3 wt % were dropped by 20 μl per chamber (IQ chamber, Epitest Ltd, Finland), and the patch was applied to the right side of the upper back of the subject and then replaced with new one after 24 hours. The skin reaction was examined before and after the patch test while the patch test was conducted three times a week and thus nine times for three weeks in total in this manner, the skin reaction was observed until the 48th hour after removal of the final patch, and the average reactivity was determined.
The skin reaction was judged according to the criteria of the International Contact Dermatitis Research Group (ICDRG). In the above table, “Novel substance 33” denotes kaempferol3-O-[2-O″-(E)-p-coumaroyl][beta-D-glucopyranosyl-(1→3)-O-alpha-L-rhamnopyranosyl-(1→6)-O-beta-D-glucopyranoside].

`Nc1ncn([C@H]2C[C@H](O)[C@@H](CO)O2)c(=O)n1` [5-Aza-2′deoxycytidine, reference compound] was tested, and the “Relative expression level of BDNF” value ([1]; 1 μM) was 149% and the “Relative expression level of DNMT1” value ([2]; 1 μM) was 65%.
With `O=c1c(O)c(-c2ccc(O)cc2O)oc2cc(O)cc(O)c12` [Morin] the “Increased RFU (amount of aggregated beta amyloid)” value [3] was 11471 RFU, the “Increased RFU (% of Pos. Cont.)” value [3] was 78.6% and the inhibition at 10 µM [3] was 21.4%.
With `CC1OC(OCC2OC(Oc3c(-c4ccc(O)cc4)oc4cc(O)cc(O)c4c3=O)C(OC(=O)/C=C/c3ccc(O)cc3)C(O)C2O)C(O)C(OC2OC(CO)C(O)C(O)C2O)C1O` [Novel substance 33, kaempferol3-O-[2-O″-(E)-p-coumaroyl][beta-D-glucopyranosyl-(1→3)-O-alpha-L-rhamnopyranosyl-(1→6)-O-beta-D-glucopyranoside]] the “Increased RFU (amount of aggregated beta amyloid)” value [3] was 11235 RFU, the “Increased RFU (% of Pos. Cont.)” value [3] was 77.0% and the inhibition at 10 µM [3] was 23%. For the same compound, the “Number of subjects showed ±, +, or ++ reactivity, 1st time” value (shortened to “Number of subjects showed ± … 1st time”) ([4]; 0.5 wt %) was 0 persons, the “Number of subjects showed ±, +, or ++ reactivity, 2nd time” value (“Number of subjects showed ± … 2nd time” below) ([4]; 0.5 wt %) was 0 persons and the “Number of subjects showed ±, +, or ++ reactivity, 3rd time” value (from here on “Number of subjects showed ± … 3rd time”) ([4]; 0.5 wt %) was 0 persons. The “Number of subjects showed ±, +, or ++ reactivity, 4th time” value (shortened to “Number of subjects showed ± … 4th time”) ([4]; 0.5 wt %) was 0 persons, the “Number of subjects showed ±, +, or ++ reactivity, 5th time” value (“Number of subjects showed ± … 5th time” below) ([4]; 0.5 wt %) was 0 persons and the “Number of subjects showed ±, +, or ++ reactivity, 6th time” value (from here on “Number of subjects showed ± … 6th time”) ([4]; 0.5 wt %) was 0 persons. For the same compound, the “Number of subjects showed ±, +, or ++ reactivity, 7 th time” value (shortened to “Number of subjects showed ± … 7 th time”) ([4]; 0.5 wt %) was 0 persons, the “Number of subjects showed ±, +, or ++ reactivity, 8 th time” value (“Number of subjects showed ± … 8 th time” for short) ([4]; 0.5 wt %) was 0 persons and the “Number of subjects showed ±, +, or ++ reactivity, 9th time” value (“Number of subjects showed ± … 9th time” below) ([4]; 0.5 wt %) was 0 persons. The Average reactivity ([4]; 0.5 wt %) was 0, the “Number of subjects showed ± … 1st time” value ([4]; 1 wt %) was 0 persons and the “Number of subjects showed ± … 2nd time” value ([4]; 1 wt %) was 0 persons. The “Number of subjects showed ± … 3rd time” value ([4]; 1 wt %) was 0 persons, the “Number of subjects showed ± … 4th time” value ([4]; 1 wt %) was 0 persons and the “Number of subjects showed ± … 5th time” value ([4]; 1 wt %) was 0 persons. The “Number of subjects showed ± … 6th time” value ([4]; 1 wt %) was 0 persons, the “Number of subjects showed ± … 7 th time” value ([4]; 1 wt %) was 0 persons and the “Number of subjects showed ± … 8 th time” value ([4]; 1 wt %) was 0 persons. The “Number of subjects showed ± … 9th time” value ([4]; 1 wt %) was 0 persons, the Average reactivity ([4]; 1 wt %) was 0 and the “Number of subjects showed ± … 1st time” value ([4]; 3 wt %) was 0 persons. The “Number of subjects showed ± … 2nd time” value ([4]; 3 wt %) was 0 persons, the “Number of subjects showed ± … 3rd time” value ([4]; 3 wt %) was 0 persons and the “Number of subjects showed ± … 4th time” value ([4]; 3 wt %) was 0 persons. For the same compound, the “Number of subjects showed ± … 5th time” value ([4]; 3 wt %) was 0 persons, the “Number of subjects showed ± … 6th time” value ([4]; 3 wt %) was 0 persons and the “Number of subjects showed ± … 7 th time” value ([4]; 3 wt %) was 0 persons. The “Number of subjects showed ± … 8 th time” value ([4]; 3 wt %) was 0 persons, the “Number of subjects showed ± … 9th time” value ([4]; 3 wt %) was 0 persons and the Average reactivity ([4]; 3 wt %) was 0. The “skin reactivity (ICDRG criteria)” value ([4]; all the content ranges (0.5, 1, 3 wt %), 15 subjects, 9 patches in 3 weeks) was “−”, the “Relative expression level of BDNF” value ([1]; 10 μg/ml) was 128% and the “Relative expression level of DNMT1” value ([2]; 10 μg/ml) was 78%.
`O=S1(=O)OC(c2ccc(O)cc2)(c2ccc(O)cc2)c2ccccc21` [Phenol Red] was tested, and the “Increased RFU (% of Pos. Cont.)” value [3] was 93.6% and the inhibition at 10 µM [3] was 6.4%.
